Test results from US5760065A, “Anti-HIV agent” (priority 1994, dated 1998).

Assays:
[1] = literature, qualitative; cited from earlier work
[2] = literature, qualitative; cited from earlier work; remark: listed apart in the source
HIV (type IIIB) = assay: HIV proliferation inhibitory activity: HIV budding from infected U937 cells, evaluated by reverse transcriptase activity; assay type: cell-based; conditions: 15 min with compound, then 6 h culture
Procedure: (§1) U937 cells (derived from human lymphocytes) infected with HIV (type IIIB) were cultured in RPMI-1640 medium (Biocell Laboratories) containing Test Compound (I) and 10% fetal bovine serum (FBS) at 37° C. for 15 minutes in a CO2 -incubator. The cultured U937 cells were washed with RPMI-1640 medium and then cultured in RPMI-1640 medium containing 10% FBS at 37° C. for 6 hours in the CO2 -incubator. The degree of inhibition of HIV budding by the test compound was evaluated by the reverse transcriptase activity in a unit culture. Cytotoxicity test was carried out by the MTT method [J. Immunol. Method., 65, 55 (1983)].

in vitro = assay type: cell-based; conditions: human, u937 cells, MTT method
Procedure: as §1

smooth muscle = conditions: 113th Meeting of the Japanese Society of Veterinary Science (1992); cited from earlier work
platelet = conditions: 67th Annual Meeting of the Japanese Pharmacological Society (1994); cited from earlier work
actin = conditions: 67th Annual Meeting of the Japanese Pharmacological Society (1994); cited from earlier work
[3] = literature, qualitative; cited from earlier work; remark: listed apart in the source

SMILES | antifungal activity [1] | cytotoxicity [2] | other results
COC(CC1OC(=O)CC(O)C/C=C/C(=O)C(C)C(OC)c2coc(n2)-c2coc(n2)-c2coc(n2)/C=C/CCC1C)C(C)CCC(=O)C(C)C(C/C=C/N(C)C=O)OC (centres unmarked) [Halichondramide] | antifungal activity | have cytotoxicity | –
COCC(OC)C(=O)OC(CCC(C)C(CC1OC(=O)CC(O)C/C=C/C(=O)C(C)C(OC)c2coc(n2)-c2coc(n2)-c2coc(n2)/C=C/CC(OC)C1C)OC)C(C)C(OC(C)=O)C(C)/C=C/N(C)C=O (centres unmarked) [Mycalolide B] | antifungal activity | have cytotoxicity | inhibition at 0.1 µM (HIV (type IIIB); Human immunodeficiency virus 1, U-937, 10^-7 M): 71.4%; inhibition at 0.01 µM (HIV (type IIIB); Human immunodeficiency virus 1, U-937, 10^-8 M): 57.1%; inhibition at 0.001 µM (HIV (type IIIB); Human immunodeficiency virus 1, U-937, 10^-9 M): 28.6%; inhibition at 0.0001 µM (HIV (type IIIB); Human immunodeficiency virus 1, U-937, 10^-10 M): 14.3%; cytotoxicity at 0.1 µM (in vitro; 10^-7 M): 4.3%; cytotoxicity at 0.01 µM (in vitro; 10^-8 M): 2.2%; cytotoxicity at 0.001 µM (in vitro; 10^-9 M): 1.5%; cytotoxicity at 0.0001 µM (in vitro; 10^-10 M): 0.7%; inhibitory activity against contraction of smooth muscle (smooth muscle): inhibitory activity against contraction of smooth muscle; anti-platelet activity (platelet): anti-platelet activity; actin polymerization inhibitory activity (actin): actin polymerization inhibitory activity
COC(=O)/C=C/CCC(C)C(CC(OC)C(C)CCC(=O)C(C)C(C/C=C/N(C)C=O)OC)OC(=O)CC(O)CC=CC(=O)C(C)C(OC)c1coc(-c2coc(C(N)=O)n2)n1 (centres unmarked) [Isohalichondramide (ester form)] | antifungal activity | have cytotoxicity | –
COC(CC1OC(=O)CC(O)CC=CC(=O)C(C)C(OC)c2coc(n2)-c2coc(n2)-c2coc(n2)/C=C/CCC1C)C(C)CCC(=O)C(C)C(CCC(=O)O)OC (centres unmarked) [Isohalichondramide (carboxylic acid form)] | antifungal activity | have cytotoxicity | –
COCC(OC)C(=O)OC(CCC(C)C(CC1OC(=O)CC(O)CCCC(=O)CC(C)c2coc(n2)-c2coc(n2)-c2coc(n2)/C=C/CC(OC)C1C)OC)C(C)C(OC(C)=O)C(C)/C=C/N(C)C=O (centres unmarked) [Ulpualide B] | – | have cytotoxicity | antibacterial activity [3]: antibacterial activity
COC(CC1OC(=O)CC(OC(N)=O)CCCC(O)C(CO)C(OC)c2coc(n2)-c2coc(n2)-c2coc(n2)/C=C/CC(OC)C1C)C(C)CCC(=O)C(C)C(OC)C(C)/C=C/N(C)C=O (centres unmarked) [Kabiramide A] | – | have cytotoxicity | –
COC(CC1OC(=O)CC(O)CC=CC(=O)C(C)C(OC)c2coc(n2)-c2coc(n2)-c2coc(n2)/C=C/CCC1C)C(C)CCC(=O)C(C)C(C/C=C/N(C)C=O)OC (centres unmarked) [Isohalichondramide] | antifungal activity | have cytotoxicity | –
COC(CC1OC(=O)CC(O)CC(O)CC(=O)C(C)C(OC)c2coc(n2)-c2coc(n2)-c2coc(n2)/C=C/CCC1C)C(C)CCC(=O)C(C)C(C/C=C/N(C)C=O)OC (centres unmarked) [Jaspisamide A] | – | have cytotoxicity | –
COC(CC1OC(=O)CC(O)C/C=C/C(=O)C(C)C(OC)c2coc(n2)-c2coc(n2)-c2coc(n2)/C=C/CC(O)C1C)C(C)CCC(=O)C(C)C(C/C=C/N(C)C=O)OC (centres unmarked) [Jaspisamide B] | – | have cytotoxicity | –
COC(CC1OC(=O)CC(O)CCCC(O)C(C)C(OC)c2coc(n2)-c2coc(n2)-c2coc(n2)/C=C/CC(OC)C1C)C(C)CCC(=O)C(C)C(OC)C(C)/C=C/N(C)C=O (centres unmarked) [Kabiramide D] | – | have cytotoxicity | –
COC(CC1OC(=O)CC(O)CCCC(O)C(C)C(OC)c2coc(n2)-c2coc(n2)-c2coc(n2)/C=C/CCC1C)C(C)CCC(=O)C(C)C(OC)C(C)/C=C/N(C)C=O (centres unmarked) [Tetrahydrohalichondramide] | antifungal activity | has cytotoxicity | –
COC(CC1OC(=O)CC(O)C/C=C/C(=O)C(C)C(OC)c2coc(n2)-c2coc(n2)-c2coc(n2)/C=C/CCC1C)C(C)CCC(=O)C(C)C(OC)C(C)/C=C/N(C)C=O (centres unmarked) [Jaspisamide C] | – | have cytotoxicity | –
COC(CC1OC(=O)CC(O)CC=CC(=O)C(C)C(OC)c2coc(n2)-c2coc(n2)C(=O)NC(=O)/C=C/CCC1C)C(C)CCC(=O)C(C)C(C/C=C/N(C)C=O)OC (centres unmarked) [Isohalichondramide (imide form)] | antifungal activity | have cytotoxicity | –
COC(CC1OC(=O)CC(O)CCCC(=O)CC(C)c2coc(n2)-c2coc(n2)-c2coc(n2)/C=C/CC(OC)C1C)C(C)CCC(=O)C(C)C(OC(C)=O)C(C)/C=C/N(C)C=O (centres unmarked) [Ulpualide A] | – | have cytotoxicity | antibacterial activity [3]: antibacterial activity
COC(CC1OC(=O)CC(O)C/C=C/C(=O)C(C)C(OC)c2coc(n2)-c2coc(n2)-c2coc(n2)/C=C/CC(OC)C1C)C(C)CCC(=O)C(C)C(OC(C)=O)C(C)/C=C/N(C)C=O (centres unmarked) [Mycalolide A] | antifungal activity | have cytotoxicity | –
COC(CC1OC(=O)CC(OC(C)=O)CCCC(O)C(C)C(OC)c2coc(n2)-c2coc(n2)-c2coc(n2)/C=C/CC(OC)C1C)C(C)CCC(=O)C(C)C(OC)C(C)/C=C/N(C)C=O (centres unmarked) [Kabiramide E] | – | have cytotoxicity | –
COC(C)C(=O)OC(CCC(C)C(CC1OC(=O)CC(O)C/C=C/C(=O)C(C)C(OC)c2coc(n2)-c2coc(n2)-c2coc(n2)/C=C/CC(OC)C1C)OC)C(C)C(OC(C)=O)C(C)/C=C/N(C)C=O (centres unmarked) [Mycalolide C] | antifungal activity | have cytotoxicity | –
COC(CC1OC(=O)CC(OC(N)=O)CCCC(O)C(C)C(OC)c2coc(n2)-c2coc(n2)-c2coc(n2)/C=C/CC(OC)C1C)C(C)CCC(=O)C(C)C(OC)C(C)/C=C/N(C)C=O (centres unmarked) [Kabiramide C] | has antifungal activity | – | –
COC(CC1OC(=O)CC(O)CCCC(=O)C(C)C(OC)c2coc(n2)-c2coc(n2)-c2coc(n2)/C=C/CCC1C)C(C)CCC(=O)C(C)C(OC)C(C)/C=C/N(C)C=O (centres unmarked) [33-Methyldihydrohalichondramide] | – | have cytotoxicity | –
COC(CC1OC(=O)CC(OC(N)=O)CCCC(O)C(C)C(OC)c2coc(n2)-c2coc(n2)-c2coc(n2)/C=C/CC(O)C1C)C(C)CCC(=O)C(C)C(OC)C(C)/C=C/N(C)C=O (centres unmarked) [Kabiramide B] | – | have cytotoxicity | –
COC(CC1OC(=O)CC(O)CCCC(=O)C(C)C(OC)c2coc(n2)-c2coc(n2)-c2coc(n2)/C=C/CCC1C)C(C)CCC(=O)C(C)C(C/C=C/N(C)C=O)OC (centres unmarked) [Dihydrohalichondramide] | antifungal activity | have cytotoxicity | –
